Experimental findings from ChEMBL document CHEMBL1152614, “Design, synthesis and evaluation of monovalent ligands for the asialoglycoprotein receptor (ASGP-R)” (Bioorg Med Chem, 2009) are described below.

Structures are written as SMILES.

Target in the first test: not listed separately
In words: Inhibition of [125I]asialoorosomucoid binding to rabbit hepatic ASGPR1. The arrangement: species or system Oryctolagus cuniculus.
As for `OC[C@H]1O[C@@H](O)[C@H](O)[C@@H](O)[C@H]1O` [b-D-GALACTOSE], the IC50 (in general, the concentration needed to halve the response being measured) was 1.7 mM.
Regarding `OC[C@H]1O[C@@H](O)[C@H](O)[C@@H](O)[C@@H]1O` [beta-D-Glucose], the IC50 was found to be 60 mM.

In a further test the target is T1, Asialoglycoprotein receptor 1 (Homo sapiens) (UniProt P07306).
T1 sequence (whole entry): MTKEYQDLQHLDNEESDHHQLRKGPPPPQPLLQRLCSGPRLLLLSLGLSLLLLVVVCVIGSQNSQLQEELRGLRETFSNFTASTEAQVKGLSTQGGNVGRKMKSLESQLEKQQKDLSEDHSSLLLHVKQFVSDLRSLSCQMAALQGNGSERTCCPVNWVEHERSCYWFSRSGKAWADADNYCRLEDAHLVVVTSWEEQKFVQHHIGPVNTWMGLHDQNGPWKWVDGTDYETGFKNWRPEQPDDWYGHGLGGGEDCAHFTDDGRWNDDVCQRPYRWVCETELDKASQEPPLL
In words: Inhibition of D-GalNAc binding to human recombinant ASGPR1 carbohydrate recognition domain expressed in Escherichia coli AD494 by competitive NMR binding assay relative to D-GalNAc.
`N#Cc1ccc(OCc2cn([C@H]3CO[C@H](CO)[C@H](O)[C@@H]3O)nn2)cc1`: the relative binding affinity (RBA) came out at 1.9.

A further test concerns the target T1, Asialoglycoprotein receptor 1 (Homo sapiens). Description: Inhibition of D-GalNAc-PAA binding to human recombinant ASGPR1 carbohydrate recognition domain expressed in Escherichia coli AD494 by competitive solid-phase binding assay relative to D-GalNAc.
For `CC(=O)N[C@H]1C(O)O[C@H](CO)[C@H](O)[C@@H]1O` (some centres not stated), the Ratio IC50 amounted to 1.
For `O=[N+]([O-])c1ccc(OCc2cn([C@H]3CO[C@H](CO)[C@H](O)[C@@H]3O)nn2)cc1`, the Ratio IC50 stood at 0.8.
On the same count and under the same terms, the result for `O=S(=O)(Nc1ccc(OCc2cn([C@H]3CO[C@H](CO)[C@H](O)[C@@H]3O)nn2)cc1)C(F)(F)F` reads “Insoluble”.
The same measure, in the same setting: the result for `OC[C@H]1OC[C@H](n2cc(COc3c(F)c(F)c(F)c(F)c3F)nn2)[C@@H](O)[C@H]1O` reads 1.4.
The same measure, in the same setting: for `O=C(O)c1ccc(OCc2cn([C@H]3CO[C@H](CO)[C@H](O)[C@@H]3O)nn2)cc1` the value was 8.7; for `N#Cc1ccc(OCc2cn([C@H]3CO[C@H](CO)[C@H](O)[C@@H]3O)nn2)cc1`, 0.5.
As for `[N-]=[N+]=N[C@H]1CO[C@H](CO)[C@H](O)[C@@H]1O`, the Ratio IC50 is 13.7.
Still for that read-out and setting: for `OC[C@H]1OC[C@H](n2cc(COc3ccccc3)nn2)[C@@H](O)[C@H]1O` the value was 1.1; for `CN1CCN(c2ccc(OCc3cn([C@H]4CO[C@H](CO)[C@H](O)[C@@H]4O)nn3)cc2)CC1`, 0.9.
